# Measurements from PubChem BioAssay (NCI).
#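 Step 1: Grow cells in 96-well plates. Step 2: Expose to compound for 48 hours at 5 concentrations. Step 3: Interpolate endpoints linearly; if unreached, use highest concentration. TGI marks complete inhibition of growth.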
# Key:
# Test in all cases: growth of human tumour cells (NCI), 48 h
# 786-0 renal = test system: 786-0 renal
# BT-549 breast = test system: BT-549 breast
# CAKI-1 renal = test system: CAKI-1 renal
# HCT-116 colon = test system: HCT-116 colon
# HT29 colon = test system: HT29 colon
# K-562 leukemia = test system: K-562 leukemia
# M14 melanoma = test system: M14 melanoma
# NCI-H460 lung = test system: NCI-H460 lung
# NCI-H522 lung = test system: NCI-H522 lung
# OVCAR-3 ovarian = test system: OVCAR-3 ovarian
# OVCAR-8 ovarian = test system: OVCAR-8 ovarian
# PC-3 prostate = test system: PC-3 prostate
# SN12C renal = test system: SN12C renal
# SNB-75 CNS = test system: SNB-75 CNS
# U251 CNS = test system: U251 CNS
# UO-31 renal = test system: UO-31 renal
SMILES,TGI (786-0 renal) [µM],TGI (BT-549 breast) [µM],TGI (CAKI-1 renal) [µM],TGI (HCT-116 colon) [µM],TGI (HT29 colon) [µM],TGI (K-562 leukemia) [µM],TGI (M14 melanoma) [µM],TGI (NCI-H460 lung) [µM],TGI (NCI-H522 lung) [µM],TGI (OVCAR-3 ovarian) [µM],TGI (OVCAR-8 ovarian) [µM],TGI (PC-3 prostate) [µM],TGI (SN12C renal) [µM],TGI (SNB-75 CNS) [µM],TGI (U251 CNS) [µM],TGI (UO-31 renal) [µM]
CC(=O)Nc1cc(Cl)cc(Cl)c1O,> 100,> 100,> 100,> 100,> 100,> 100,> 100,> 100,> 100,> 100,> 100,> 100,> 100,> 100,> 100,> 100
O=C1Nc2ccc(Br)cc2/C1=N/S(=O)(=O)O,68.2,> 100,> 100,> 100,> 100,42.6,> 100,> 100,> 100,> 100,> 100,83.3,37,> 100,> 100,> 100
CCCC(=O)OCC1OC(n2cc(F)c(=O)[nH]c2=O)CC1O (stereo not drawn),> 10,> 10,> 10,> 10,> 10,> 10,> 10,> 10,> 10,> 10,> 10,> 10,> 10,9.55,> 10,> 10
